Test results taken from publication PMC8815882, “Screening the pandemic response box identified benzimidazole carbamates, Olorofim and ravuconazole as promising drug candidates for the treatment of eumycetoma” (PLoS Neglected Tropical Diseases, 2022).
Read-outs that look alike come from different tables or passages of the source.

System: M. mycetomatis genome strain MM55
Test: CLSI M38-A2 based in vitro susceptibility screening (XTT or resazurin), growth at fixed concentration
Assay type: cell-based, Madurella mycetomatis
Conditions: Madurella mycetomatis; for Percent fungal survival at 100 µM: read-out: Percentage survival at 100um, 100 uM A (second replicate column)
[1] = mean of replicates, MM55, read-out: Percentage survival at 25um, 25 uM mean
[2] = replicate A, MM55, read-out: Percentage survival at 25um, 25 um A
[3] = replicate B, MM55, read-out: Percentage survival at 25um, 25 uM B
[4] = replicate C, MM55, read-out: Percentage survival at 25um, 25 uM C
[5] = mean of replicates, MM55, read-out: Percentage survival at 100um, 100 uM mean
[6] = replicate 1, MM55, read-out: Percentage survival at 100um, 100 uM A
[7] = replicate 2, MM55, read-out: Percentage survival at 100um, 100 uM A
[8] = replicate 3, MM55, read-out: Percentage survival at 100um, 100 uM A
[9] = mean of three replicates, read-out: Percentage survival at 25um, 25 uM mean
[10] = replicate A, read-out: Percentage survival at 25um, 25 um A
[11] = replicate B, read-out: Percentage survival at 25um, 25 uM B
[12] = replicate C, read-out: Percentage survival at 25um, 25 uM C
[13] = first replicate column, read-out: Percentage survival at 100um, 100 uM A
[14] = mean of three replicates, read-out: Percentage survival at 100um, 100 uM mean
[15] = second replicate column, read-out: Percentage survival at 100um, 100 uM A
[16] = third replicate column, read-out: Percentage survival at 100um, 100 uM A
[17] = mean of three, M. mycetomatis MM55, read-out: Percentage survival at 25um, 25 uM mean
[18] = replicate A, M. mycetomatis MM55, read-out: Percentage survival at 25um, 25 um A
[19] = replicate B, M. mycetomatis MM55, read-out: Percentage survival at 25um, 25 uM B
[20] = replicate C, M. mycetomatis MM55, read-out: Percentage survival at 25um, 25 uM C
[21] = mean of three, M. mycetomatis MM55, read-out: Percentage survival at 100um, 100 uM mean
[22] = replicate 1, M. mycetomatis MM55, read-out: Percentage survival at 100um, 100 uM A (first replicate column)
[23] = replicate 2, M. mycetomatis MM55
[24] = replicate 3, M. mycetomatis MM55, read-out: Percentage survival at 100um, 100 uM A (third replicate column)

CN(C(=O)C1(c2ccc(Cl)cc2)CCC1)c1ccccc1 [MMV1581030]
activity at 25 µM [1]: 63.9%
activity at 25 µM [2]: 61.1%
activity at 25 µM [3]: 107%
activity at 25 µM [4]: 23.2%
activity at 100 µM [5]: 9.02%
activity at 100 µM [6]: 16%
activity at 100 µM [7]: 1.46%
activity at 100 µM [8]: 9.58%

N[C@H](CCC(=O)N[C@@H](Cc1c[nH]c2ccccc12)C(=O)O)C(=O)O [MMV1581033]
activity at 25 µM [1]: 91%
activity at 25 µM [2]: 91.2%
activity at 25 µM [3]: 94.6%
activity at 25 µM [4]: 87.2%
activity at 100 µM [5]: 66.8%
activity at 100 µM [6]: 84.1%
activity at 100 µM [7]: 28.6%
activity at 100 µM [8]: 87.7%

Cc1c(F)cccc1NC(=O)Nc1ccc(Cl)c(S(=O)(=O)[C@H]2CCCNC2)c1O [MMV1581034]
activity at 25 µM [1]: 83.9%
activity at 25 µM [2]: 82%
activity at 25 µM [3]: 88.9%
activity at 25 µM [4]: 80.7%
activity at 100 µM [5]: 77.6%
activity at 100 µM [6]: 82.8%
activity at 100 µM [7]: 73.6%
activity at 100 µM [8]: 76.3%

NC(=O)c1ccc(I)c([N+](=O)[O-])c1 [MMV1581035]
activity at 25 µM [9]: 97.6%
activity at 25 µM [10]: 97.2%
activity at 25 µM [11]: 103%
activity at 25 µM [12]: 92.5%
activity at 100 µM [13]: 89.6%
activity at 100 µM [14]: 90.1%
activity at 100 µM [15]: 93.1%
activity at 100 µM [16]: 87.5%

COc1ccc(C[C@@H](C)[C@@H](C)Cc2ccc(OC)c(OC)c2)cc1OC [MMV1581036]
activity at 25 µM [1]: 68.5%
activity at 25 µM [2]: 72.1%
activity at 25 µM [3]: 71.5%
activity at 25 µM [4]: 61.9%
activity at 100 µM [5]: 52.6%
activity at 100 µM [6]: 50.8%
activity at 100 µM [7]: 58.7%
activity at 100 µM [8]: 48.3%

O=C1[C@H](CC[C@H](O)c2ccc(F)cc2)[C@@H](c2ccc(O)cc2)N1c1ccc(F)cc1 [MMV1581377]
activity at 25 µM [9]: 91.9%
activity at 25 µM [10]: 82.7%
activity at 25 µM [11]: 93.7%
activity at 25 µM [12]: 99.2%
activity at 100 µM [13]: -3.71%
activity at 100 µM [14]: 43.8%
activity at 100 µM [15]: 57.6%
activity at 100 µM [16]: 77.4%

Nc1ccc2oc(=O)ccc2c1I [MMV1581378]
activity at 25 µM [9]: 80.5%
activity at 25 µM [10]: 75.8%
activity at 25 µM [11]: 85.5%
activity at 25 µM [12]: 80.1%
activity at 100 µM [13]: 75.4%
activity at 100 µM [14]: 64.9%
activity at 100 µM [15]: 66.2%
activity at 100 µM [16]: 53.2%

O=c1cc(Nc2ccc3ccccc3c2)[nH]c(=O)[nH]1 [MMV1581546]
activity at 25 µM [17]: 84.3%
activity at 25 µM [18]: 93.6%
activity at 25 µM [19]: 85%
activity at 25 µM [20]: 74.5%
activity at 100 µM [21]: 86%
activity at 100 µM [22]: 78.9%
Percent fungal survival at 100 µM [23]: 98.5%
activity at 100 µM [24]: 80.4%

CC(C)(C)OC(=O)NCc1ccc(C(=O)N[C@H]2CCOC2=O)cc1 [MMV1581547]
activity at 25 µM [17]: 87.5%
activity at 25 µM [18]: 95.2%
activity at 25 µM [19]: 90.1%
activity at 25 µM [20]: 77.3%
activity at 100 µM [21]: 113%
activity at 100 µM [22]: 94.9%
Percent fungal survival at 100 µM [23]: 156%
activity at 100 µM [24]: 89.2%

CC(C)(C)c1cccc(-c2nc3cc(C(=N)N)ccc3[nH]2)c1O [MMV1581548]
activity at 25 µM (mean, read-out: Percentage survival at 25um, 25 uM mean): 20.7%
activity at 25 µM [10]: 56.8%
activity at 25 µM [11]: 2.31%
activity at 25 µM [12]: 2.96%
activity at 100 µM (mean, read-out: Percentage survival at 100um, 100 uM mean): 3.06%
activity at 100 µM (replicate (first column), read-out: Percentage survival at 100um, 100 uM A): -0.0188%
activity at 100 µM (replicate (second column), read-out: Percentage survival at 100um, 100 uM A): 5.51%
activity at 100 µM (replicate (third column), read-out: Percentage survival at 100um, 100 uM A): 3.71%

CCc1nc(N)nc(N)c1C#CCc1ccccc1 [MMV1581549]
activity at 25 µM [9]: 92.3%
activity at 25 µM [10]: 59.8%
activity at 25 µM [11]: 78.6%
activity at 25 µM [12]: 138%
activity at 100 µM [14]: 2.68%
activity at 100 µM (replicate 1, read-out: Percentage survival at 100um, 100 uM A (first replicate column)): 1.33%
Percent fungal survival at 100 µM (replicate 2): 1.24%
activity at 100 µM (replicate 3, read-out: Percentage survival at 100um, 100 uM A (third replicate column)): 5.46%
